Test results reported in US20090209494A1, “21-DEOXYMACBECIN ANALOGUES USEFUL AS ANTITUMOR AGENTS” (priority 2005, published 2009).
Converted amounts (≈) assume the structure as drawn.

Columns and labels:
394NL = assay: monolayer proliferation assay (modified propidium iodide assay), 394NL; type: cell-based, human; details: 4 days exposure, median of duplicate experiments
Description: (§1) In vitro evaluation of compounds for anticancer activity in a panel of 38 human tumour cell lines in a monolayer proliferation assay was carried out at the Oncotest Testing Facility, Institute for Experimental Oncology, Oncotest GmbH, Freiburg.
(§2) The Oncotest cell lines are established from human tumor xenografts as described by Roth et al., (1999). The origin of the donor xenografts was described by Fiebig et al., (1999). Other cell lines are either obtained from the NCl (H460, SF-268, OVCAR-3, DU145, MDA-MB-231, MDA-MB-468) or purchased from DSMZ, Braunschweig, Germany (LNCAP).
(§3) All cell lines, unless otherwise specified, were grown at 37° C. in a humidified atmosphere (95% air, 5% CO2) in a ‘ready-mix’ medium containing RPMI 1640 medium, 10% fetal calf serum, and 0.1 mg/mL gentamicin (PAA, Cölbe, Germany).
(§4) A modified propidium iodide assay was used to assess the effects of the test compound(s) on the growth of human tumour cell lines (Dengler et al., (1995)).
(§5) Briefly, cells were harvested from exponential phase cultures by trypsinization, counted and plated in 96 well flat-bottomed microtitre plates at a cell density dependent on the cell line (5-10.000 viable cells/well). After 24 h recovery to allow the cells to resume exponential growth, 0.010 mL of culture medium (6 control wells per plate) or culture medium containing a 21-deoxymacbecin analogue was added to the wells. Each concentration was plated in triplicate. […] Following 4 days of continuous exposure, cell culture medium with or without test compound was replaced by 0.2 mL of an aqueous propidium iodide (PI) solution (7 mg/L). To measure the proportion of living cells, cells were permeabilized by freezing the plates. After thawing the plates, fluorescence was measured using the Cytofluor 4000 microplate reader (excitation 530 nm, emission 620 nm), giving a direct relationship to the total number of viable cells.
(§6) Growth inhibition was expressed as treated/control×100 (% T/C). For active compounds, IC70 values were estimated by plotting compound concentration versus cell viability.
(§7) In vitro evaluation of the test compounds for anticancer activity in a panel of human tumour cell lines in a monolayer proliferation assay was carried out as described in the general methods using a modified propidium iodide assay.

Solubility assay = type: physicochemical; details: aqueous buffer, kinetic from dmso stock; 2% DMSO in PBS pH 7.3; shaken up to six hours; maximum measurable 0.5 mM
Description: Solutions (25 mM) of the test compounds were prepared by dissolving 3-5 mg aliquots in the appropriate amount of DMSO.
Aliquots (0.01 mL) were added to 0.490 mL of pH 7.3 PBS in glass vials. For each time point, 3 PBS vials were prepared in amber glass vials. For the six hour time point triplicate aliquots in DMSO were also prepared.
The resulting 0.5 mM solutions were shaken for up to six hours, with vials removed for analysis at 1, 3 and 6 hours. Samples were analysed by HPLC (0.025 mL injections).
Solubility in 2% DMSO in PBS at each time point was determined by comparing total peak areas for each chromatogram with mean total peak area for chromatograms produced from the corresponding 6 hour DMSO solutions. (Mean total peak area in DMSO solutions was assumed to be equivalent to a 0.5 mM solution).

1138L = assay: monolayer proliferation assay (modified propidium iodide assay), 1138L; type: cell-based, human; details: 4 days exposure, median of duplicate experiments
Description: as §1, §2, §3, §4, §5, §6, §7

251L = assay: monolayer proliferation assay (modified propidium iodide assay), 251L; type: cell-based, human; details: 4 days exposure, median of duplicate experiments
Description: as §1, §2, §3, §4, §5, §6, §7

LNCAP = assay: monolayer proliferation assay (modified propidium iodide assay), LNCAP; type: cell-based, human; details: 4 days exposure, median of duplicate experiments
Description: as §1, §2, §3, §4, §5, §6, §7

OVCAR3 = assay: monolayer proliferation assay (modified propidium iodide assay), OVCAR3; type: cell-based, human; details: 4 days exposure, median of duplicate experiments
Description: as §1, §2, §3, §4, §5, §6, §7

MCF7 = assay: monolayer proliferation assay (modified propidium iodide assay), MCF7; type: cell-based, human; details: 4 days exposure, median of duplicate experiments
Description: as §1, §2, §3, §4, §5, §6, §7

DU145 [1] = assay: monolayer proliferation assay (modified propidium iodide assay), DU145; type: cell-based, human; details: 4 days exposure, median of duplicate experiments
Description: as §1, §2, §3, §4, §5, §6, §7

H460 = assay: monolayer proliferation assay (modified propidium iodide assay), H460; type: cell-based, human; details: 4 days exposure, median of duplicate experiments
Description: as §1, §2, §3, §4, §5, §6, §7

Yeast Hsp90 = Yeast Hsp90 (Saccharomyces cerevisiae, UniProt P02829); assay: Hsp90 binding, isothermal titration calorimetry; details: yeast Hsp90; ITC at 30° C.; 2% DMSO; read-out: Kd values for Hsp90 binding
Chain of Yeast Hsp90 (P02829 whole entry): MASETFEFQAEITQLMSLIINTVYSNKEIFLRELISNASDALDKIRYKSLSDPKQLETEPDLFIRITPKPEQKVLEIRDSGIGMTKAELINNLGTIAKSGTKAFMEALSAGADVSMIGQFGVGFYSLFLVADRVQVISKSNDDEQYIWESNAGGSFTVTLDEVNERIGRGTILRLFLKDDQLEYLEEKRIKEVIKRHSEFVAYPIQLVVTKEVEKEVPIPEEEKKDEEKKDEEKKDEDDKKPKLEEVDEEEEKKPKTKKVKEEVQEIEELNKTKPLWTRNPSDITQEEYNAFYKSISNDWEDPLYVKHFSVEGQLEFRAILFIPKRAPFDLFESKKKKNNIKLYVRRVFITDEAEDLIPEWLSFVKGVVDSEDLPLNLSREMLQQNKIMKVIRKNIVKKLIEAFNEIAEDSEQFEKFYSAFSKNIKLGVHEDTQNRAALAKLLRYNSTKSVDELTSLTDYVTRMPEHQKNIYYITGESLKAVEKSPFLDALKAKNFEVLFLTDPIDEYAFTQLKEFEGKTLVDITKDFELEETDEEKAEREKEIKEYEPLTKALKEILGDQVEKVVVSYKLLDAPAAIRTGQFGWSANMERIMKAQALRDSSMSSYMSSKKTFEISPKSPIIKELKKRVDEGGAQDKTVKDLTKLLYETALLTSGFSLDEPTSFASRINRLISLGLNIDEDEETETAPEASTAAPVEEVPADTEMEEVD
Description: Yeast Hsp90 was dialysed against 20 mM Tris pH 7.5 containing 1 mM EDTA and 5 mM NaCl and then diluted to 0.008 mM in the same buffer, but containing 2% DMSO. The test compounds were dissolved in 100% DMSO at a concentration of 50 mM and subsequently diluted to 0.1 mM in the same buffer as for Hsp90 with 2% DMSO. Heats of interaction were measured at 30° C. on a MSC system (Microcal), with a cell volume of 1.458 mL. 10 aliquots of 0.027 mL of 0.100 mM of each test compound were injected into 0.008 mM yeast Hsp90. Heats of dilution were determined in a separate experiment by injecting the test compound into buffer containing 2% DMSO, and the corrected data fitted using a nonlinear least square curve-fitting algorithm (Microcal Origin) with three floating variables: stoichiometry, binding constant and change in enthalpy of interaction.

SF268 = assay: monolayer proliferation assay (modified propidium iodide assay), SF268; type: cell-based, human; details: 4 days exposure, median of duplicate experiments
Description: as §1, §2, §3, §4, §5, §6, §7

DU145 [2] = assay: in vitro anticancer activity in combination with compound 14, modified propidium iodide assay; type: cell-based, human
Description: Standard agents were applied at 10 concentrations in sextuplicates in half-log increments. […] Growth inhibition is expressed as treated/control×100 (% T/C), and IC70 values for each combination were determined by plotting compound concentration versus cell viability.
In vitro evaluation of 14 for anticancer activity when combined with standard cytotoxic agents against the tumour cell line DU145 in a monolayer proliferation assay was carried out as described in the general methods using a modified propidium iodide assay.

Hsp90 = Hsp90 (Homo sapiens, UniProt P07900); details: cited from earlier work
[3] = concentration of 14: 0 nM (standard agent alone)

Q: For `CO[C@H]1C[C@H](C)Cc2cc(O)cc(c2)NC(=O)/C(C)=C/CC[C@H](C)[C@@H](OC(N)=O)/C(C)=C/[C@H](C)[C@H]1O` [Compound 14, 7-O-carbamoylpre-macbecin], which “Test/Control (%) at drug concentration” value (394NL; 1 μg/mL) is on record?
A: Its value is 14%.

Q: And the “Test/Control (%) at drug concentration” value (394NL; 10 μg/mL)?
A: The value was 13%.

Q: What about the solubility (Solubility assay) of the same compound?
A: Its solubility is at least 500 µM.

Q: And the “Test/Control (%) at drug concentration” value (1138L; 1 μg/mL)?
A: Its value is 13%.

Q: What about the “Test/Control (%) at drug concentration” value (1138L; 10 μg/mL) of the same compound?
A: The value was 14%.

Q: What about the “Test/Control (%) at drug concentration” value (251L; 1 μg/mL) of the same compound?
A: The value was 18%.

Q: What about the “Test/Control (%) at drug concentration” value (251L; 10 μg/mL) of the same compound?
A: Its value is 16%.

Q: And the “Test/Control (%) at drug concentration” value (LNCAP; 1 μg/mL)?
A: Its value is 13%.

Q: And the “Test/Control (%) at drug concentration” value (LNCAP; 10 μg/mL)?
A: Its value is 12%.

Q: And the “Test/Control (%) at drug concentration” value (OVCAR3; 1 μg/mL)?
A: Its value is 27%.

Q: And the “Test/Control (%) at drug concentration” value (OVCAR3; 10 μg/mL)?
A: Its value is 28%.

Q: And the “Test/Control (%) at drug concentration” value (MCF7; 1 μg/mL)?
A: Its value is 11%.

Q: What about the “Test/Control (%) at drug concentration” value (MCF7; 10 μg/mL) of the same compound?
A: The value was 9%.

Q: And the “Test/Control (%) at drug concentration” value (DU145 [1]; 1 μg/mL)?
A: Its value is 8%.

Q: And the “Test/Control (%) at drug concentration” value (DU145 [1]; 10 μg/mL)?
A: Its value is 6%.

Q: And the “Test/Control (%) at drug concentration” value (H460; 1 μg/mL)?
A: The value was 3%.

Q: And the “Test/Control (%) at drug concentration” value (H460; 10 μg/mL)?
A: The value was 4%.

Q: What about the Kd (Yeast Hsp90) of the same compound?
A: The Kd was 3.2 nM.

Q: What about the “Test/Control (%) at drug concentration” value (SF268; 1 μg/mL) of the same compound?
A: The value was 18%.

Q: And the “Test/Control (%) at drug concentration” value (SF268; 10 μg/mL)?
A: Its value is 16%.

Q: Which “IC70 of standard agent” value (DU145 [2]; combined with 14 at 30 nM) does the source give for `CO[C@@]12[C@H](COC(N)=O)C3=C(C(=O)C(C)=C(N)C3=O)N1C[C@@H]1N[C@@H]12` [mitomycin, mitomycin C] here?
A: The value was 0.112 µg/mL.

Q: And the “IC70 of standard agent” value (DU145 [2]; combined with 14 at 50 nM)?
A: The value was 0.087 µg/mL.

Q: What about the “IC70 of standard agent” value (DU145 [2]; combined with 14 at 80 nM) of the same compound?
A: The value was 0.056 µg/mL.

Q: And the “IC70 of standard agent” value (DU145 [2]; [3])?
A: Its value is 0.165 µg/mL.

Q: For `O=C1c2c(O)ccc(O)c2C(=O)c2c(NCCNCCO)ccc(NCCNCCO)c21` [mitoxantrone], which “IC70 of standard agent” value (DU145 [2]; combined with 14 at 80 nM) is on record?
A: Its value is 1.00 µg/mL.

Q: And the “IC70 of standard agent” value (DU145 [2]; combined with 14 at 120 nM)?
A: Its value is 1.25 µg/mL.

Q: What about the “IC70 of standard agent” value (DU145 [2]; combined with 14 at 160 nM) of the same compound?
A: The value was 0.11 µg/mL.

Q: What about the “IC70 of standard agent” value (DU145 [2]; [3]) of the same compound?
A: The value was 2.08 µg/mL.

Q: For `O=P1(NCCCl)OCCCN1CCCl` (centres unmarked) [ifosfamid], which “IC70 of standard agent” value (DU145 [2]; combined with 14 at 80 nM) is on record?
A: The value was 80.57 µg/mL.

Q: And the “IC70 of standard agent” value (DU145 [2]; combined with 14 at 120 nM)?
A: Its value is 52.09 µg/mL.

Q: What about the “IC70 of standard agent” value (DU145 [2]; combined with 14 at 160 nM) of the same compound?
A: Its value is 17.32 µg/mL.

Q: What about the “IC70 of standard agent” value (DU145 [2]; [3]) of the same compound?
A: Its value is 90.14 µg/mL.

Q: Which solubility (Solubility assay) does the source give for `CO[C@H]1[C@@H](OC)C[C@H](C)[C@@H](OC)c2cc(O)cc(c2O)NC(=O)/C(C)=C/C=C\[C@H](C)[C@@H](OC(N)=O)/C(C)=C/[C@@H]1C` [18,21-dihydromacbecin] here?
A: The solubility was 136 µM (≈ 76.3 µg/mL).

Q: For `CO[C@H]1C[C@H](C)Cc2cc(O)cc(c2)NC(=O)/C=C/CC[C@H](OC)[C@@H](OC(N)=O)/C(C)=C/[C@H](C)[C@H]1O` [KOSN1559], which “binding affinity to Hsp90, greater than 17-AAG” value (Hsp90; relative to 17-AAG) is on record?
A: Its value is 8 fold.

Q: What about the “binding affinity to Hsp90, greater than geldanamycin” value (Hsp90; relative to geldanamycin) of the same compound?
A: The value was 4 fold.
